According to US20260125382A1, “COMPOUNDS FOR INHIBITING OR DEGRADING CDK2 AND/OR CDK9 AND MEDICINAL USE THEREOF” (KOREA RESEARCH INSTITUTE OF CHEMICAL TECHNOLOGY, priority 2022, published 2026):

Legend:
[1] = target: T1, CDK9 (Homo sapiens, UniProt P50750); experiment: CDK protein degradation activity (Western blotting), CDK9; assay type: cell-based; details: MDA-MB-231 cells, 16 hours, Western blot
T1 construct: endogenous in cells; host or cells: MDA-MB-231
Summary of the method: (§1)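 Seed MDA-MB-231 cells; next day add compound to 100 nM, 1 μM or 10 μM final, or DMSO. After 16 h, harvest and lyse in Triton X-100 buffer, run SDS-PAGE, probe for CDK2, CDK9 and tubulin.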

[2] = target: T2, CDK2 (Homo sapiens, UniProt P24941); experiment: CDK protein degradation activity (Western blotting), CDK2; assay type: cell-based; details: MDA-MB-231 cells, 16 hours, Western blot
T2 construct: endogenous in cells; host or cells: MDA-MB-231
Summary of the method: as §1

T1 sequence (P50750 whole entry): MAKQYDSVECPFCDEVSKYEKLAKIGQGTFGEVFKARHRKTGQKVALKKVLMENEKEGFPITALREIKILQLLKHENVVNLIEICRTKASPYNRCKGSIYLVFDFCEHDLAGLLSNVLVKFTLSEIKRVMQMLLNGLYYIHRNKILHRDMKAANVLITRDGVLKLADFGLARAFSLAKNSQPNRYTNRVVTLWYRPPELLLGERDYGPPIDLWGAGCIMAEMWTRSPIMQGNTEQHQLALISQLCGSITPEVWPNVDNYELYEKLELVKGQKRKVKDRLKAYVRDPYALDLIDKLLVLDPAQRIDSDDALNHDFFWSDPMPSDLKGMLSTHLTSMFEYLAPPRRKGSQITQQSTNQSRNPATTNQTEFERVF

SMILES | Enzyme degradation CDK9 (% remaining) @ 0.1 μM [1] | Enzyme degradation CDK9 (% remaining) @ 1 μM [1] | Enzyme degradation CDK9 (% remaining) @ 10 μM [1] | Enzyme degradation CDK2 (% remaining) @ 0.1 μM [2] | Enzyme degradation CDK2 (% remaining) @ 1 μM [2] | Enzyme degradation CDK2 (% remaining) @ 10 μM [2]
O=C1CC[C@H](N2C(=O)C=C(Nc3cccc(CC(=O)N4CCC(CC(=O)N5CCN(c6ccc(Nc7ncnc8c7ncn8[C@H]7C[C@@H](NC(=O)Cc8ccccc8)C7)cc6)CC5)CC4)c3)C2=O)C(=O)N1 [Compound 196, N-((1s,3s)-3-(6-((4-(4-(2-(1-(2-(3-((1-(2,6-dioxopiperidin-3-yl)-2,5-dioxo-2,5-dihydro-1H-pyrrol-3-yl)amino)phenyl)acetyl)piperidin-4-yl)acetyl)piperazin-1-yl)phenyl)amino)-9H-purin-9-yl)cyclobutyl)-2-phenylacetamide] | 30% | 40% | 40% | 80% | 100% | 100%
O=C1CC[C@H](N2C(=O)C=C(N3CCC(C(=O)N4CCC(CC(=O)N5CCN(c6ccc(Nc7ncnc8c7ncn8[C@H]7C[C@@H](NC(=O)Cc8ccccc8)C7)cc6)CC5)CC4)CC3)C2=O)C(=O)N1 [Compound 197, N-((1s,3s)-3-(6-((4-(4-(2-(1-(1-(1-(2,6-dioxopiperidin-3-yl)-2,5-dioxo-2,5-dihydro-1H-pyrrol-3-yl)piperidin-4-carbonyl)piperidin-4-yl)acetyl)piperazin-1-yl)phenyl)amino)-9H-purin-9-yl)cyclobutyl)-2-phenylacetamide] | 10% | 10% | 0% | 30/30/30% | 30/30/30% | 30/30/30%
COc1ccc(C(=O)NC[C@H]2CC[C@H](CN3CCN(c4ccc(Nc5ncnc6c5ncn6[C@H]5C[C@@H](NC(=O)Cc6ccccc6)C5)cc4)CC3)CC2)cc1N1CCC(=O)NC1=O [Compound 198, 3-(2,4-dioxotetrahydropyrimidin-1(2H)-yl)-4-methoxy-N-(((1r,4r)-4-((4-(4-((9-((1s,3s)-3-(2-phenylacetamido)cyclobutyl)-9H-purin-6-yl)amino)phenyl)piperazin-1-yl)methyl)cyclohexyl)methyl)benzamide] | 50% | 30% | 10% | 0/0/0% | 0/0/0% | 0/0/0%
O=C1CCN(c2coc3cc(C(=O)NC[C@H]4CC[C@H](CN5CCN(c6ccc(Nc7ncnc8c7ncn8[C@H]7C[C@@H](NC(=O)Cc8ccccc8)C7)cc6)CC5)CC4)ccc23)C(=O)N1 [Compound 199, 3-(2,4-dioxotetrahydropyrimidin-1(2H)-yl)-N-(((1r,4r)-4-((4-(4-((9-((1s,3s)-3-(2-phenylacetamido)cyclobutyl)-9H-purin-6-yl)amino)phenyl)piperazin-1-yl)methyl)cyclohexyl)methyl)benzofuran-6-carboxamide] | 20% | 30% | 30% | 50% | 60% | 50%
O=C(Cc1cccc(NC2=CC(=O)N(C3CCC(=O)NC3=O)C2=O)c1)NC[C@H]1CC[C@H](CN2CCN(c3ccc(Nc4ncnc5c4ncn5[C@H]4C[C@@H](NC(=O)Cc5ccccc5)C4)cc3)CC2)CC1 (stereo partly drawn) [Compound 200, 2-(3-((1-(2,6-dioxopiperidin-3-yl)-2,5-dioxo-2,5-dihydro-1H-pyrrol-3-yl)amino)phenyl)-N-(((1r,4r)-4-((4-(4-((9-((1s,3s)-3-(2-phenylacetamido)cyclobutyl)-9H-purin-6-yl)amino)phenyl)piperazin-1-yl)methyl)cyclohexyl)methyl)acetamide] | 20/20/20% | 20/20/20% | 20/20/20% | 100/100/100% | 100/100/100% | 100/100/100%
O=C1CCC(N2C(=O)C=C(N3CCC(C(=O)NC[C@H]4CC[C@H](CN5CCN(c6ccc(Nc7ncnc8c7ncn8[C@H]7C[C@@H](NC(=O)Cc8ccccc8)C7)cc6)CC5)CC4)CC3)C2=O)C(=O)N1 (stereo partly drawn) [Compound 201, 1-(1-(2,6-dioxopiperidin-3-yl)-2,5-dioxo-2,5-dihydro-1H-pyrrol-3-yl)-N-(((1r,4r)-4-((4-(4-((9-((1s,3s)-3-(2-phenylacetamido)cyclobutyl)-9H-purin-6-yl)amino)phenyl)piperazin-1-yl)methyl)cyclohexyl)methyl)piperidin-4-carboxamide] | 10% | 10% | 0% | 50% | 70% | 50%

Other lines, results leading:

Enzyme degradation CDK9 (% remaining) @ 0.1 μM [1] | Enzyme degradation CDK9 (% remaining) @ 1 μM [1] | Enzyme degradation CDK9 (% remaining) @ 10 μM [1] | Enzyme degradation CDK2 (% remaining) @ 0.1 μM [2] | Enzyme degradation CDK2 (% remaining) @ 1 μM [2] | Enzyme degradation CDK2 (% remaining) @ 10 μM [2] | SMILES
10% | 0% | 0% | 30% | 20% | 40% | O=C1CC[C@@H](c2ccc(OCC(=O)N3CCC(CN4CCN(c5ccc(Nc6ncnc7c6ncn7C6CC(NC(=O)Cc7ccccc7)C6)cc5)CC4)CC3)cc2)C(=O)N1 (stereo partly drawn) [Compound 202, N-((1s,3s)-3-(6-((4-(4-((1-(2-(4-(2,6-dioxopiperidin-3-yl)phenoxy)acetyl)piperidin-4-yl)methyl)piperazin-1-yl)phenyl)amino)-9H-purin-9-yl)cyclobutyl)-2-phenylacetamide]
20% | 0% | 0% | 70% | 40% | 70% | O=C1CC[C@@H](c2ccc(OCC(=O)N3CCC(CC(=O)N4CCN(c5ccc(Nc6ncnc7c6ncn7C6CC(NC(=O)Cc7ccccc7)C6)cc5)CC4)CC3)cc2)C(=O)N1 (stereo partly drawn) [Compound 203, N-((1s,3s)-3-(6-((4-(4-(2-(1-(2-(4-(2,6-dioxopiperidin-3-yl)phenoxy)acetyl)piperidin-4-yl)acetyl)piperazin-1-yl)phenyl)amino)-9H-purin-9-yl)cyclobutyl)-2-phenylacetamide]
0/0/0% | 0/0/0% | 0/0/0% | 20/20/20% | 20/20/20% | 20/20/20% | O=C1CC[C@H](N2C(=O)c3cccc(NCC(=O)N4CCC5(CC4)CC(N4CCN(c6ccc(Nc7ncnc8c7ncn8[C@H]7C[C@@H](NC(=O)Cc8ccccc8)C7)cc6)CC4)C5)c3C2=O)C(=O)N1 [Compound 204, N-((1s,3s)-3-(6-((4-(4-(7-((2-(2,6-dioxopiperidin-3-yl)-1,3-dioxoisoindolin-4-yl)glycyl)-7-azaspiro[3.5]nonan-2-yl)piperazin-1-yl)phenyl)amino)-9H-purin-9-yl)cyclobutyl)-2-phenylacetamide]
0/0/0% | 0/0/0% | 0/0/0% | 30/30/30% | 30/30/30% | 30/30/30% | O=C1CCC(c2ccc(OCC(=O)N3CCC4(CC3)CC(N3CCN(c5ccc(Nc6ncnc7c6ncn7[C@H]6C[C@@H](NC(=O)Cc7ccccc7)C6)cc5)CC3)C4)cc2)C(=O)N1 (stereo partly drawn) [Compound 205, N-((1s,3s)-3-(6-((4-(4-(7-(2-(4-(2,6-dioxopiperidin-3-yl)phenoxy)acetyl)-7-azaspiro[3.5]nonan-2-yl)piperazin-1-yl)phenyl)amino)-9H-purin-9-yl)cyclobutyl)-2-phenylacetamide]
0/0/0% | 0/0/0% | 0/0/0% | 20% | 20% | 10% | O=C1CCC(N2C(=O)c3cccc(OCC(=O)N4CCC5(CC4)CC(N4CCN(c6ccc(Nc7ncnc8c7ncn8[C@H]7C[C@@H](NC(=O)Cc8ccccc8)C7)cc6)CC4)C5)c3C2=O)C(=O)N1 (stereo partly drawn) [Compound 206, N-((1s,3s)-3-(6-((4-(4-(7-(2-((2-(2,6-dioxopiperidin-3-yl)-1,3-dioxoisoindolin-4-yl)oxy)acetyl)-7-azaspiro[3.5]nonan-2-yl)piperazin-1-yl)phenyl)amino)-9H-purin-9-yl)cyclobutyl)-2-phenylacetamide]
0/0/0% | 0/0/0% | 0/0/0% | 50% | 70% | 50% | O=C1CC[C@H](N2C(=O)c3ccc(NCC(=O)N4CCC5(CC4)CC(N4CCN(c6ccc(Nc7ncnc8c7ncn8[C@H]7C[C@@H](NC(=O)Cc8ccccc8)C7)cc6)CC4)C5)cc3C2=O)C(=O)N1 [Compound 207, N-((1s,3s)-3-(6-((4-(4-(7-((2-(2,6-dioxopiperidin-3-yl)-1,3-dioxoisoindolin-5-yl)glycyl)-7-azaspiro[3.5]nonan-2-yl)piperazin-1-yl)phenyl)amino)-9H-purin-9-yl)cyclobutyl)-2-phenylacetamide]
